According to the NIST ThermoML archive (doi:10.1021/je3011634):

Assay: xn = mol fraction of the nth substance listed
Settings: 101 kPa, Liquid; for viscosity: Capillary tube (Ostwald / Ubbelohde) method; for mass density: Vibrating tube method

CC(C)CO [2-methyl-1-propanol] + CCCO
Settings | mass density, 293.15 K [kg/m3] | mass density, 303.15 K [kg/m3] | mass density, 313.15 K [kg/m3] | mass density, 323.15 K [kg/m3] | mass density, 333.15 K [kg/m3] | viscosity, 293.15 K [mPa·s] | viscosity, 303.15 K [mPa·s] | viscosity, 313.15 K [mPa·s] | viscosity, 323.15 K [mPa·s] | viscosity, 333.15 K [mPa·s]
x1 = 0.1038 | 803.39 | 795.39 | 787.25 | 778.91 | 770.34 | 2.147 | 1.586 | 1.079 | 0.835 | 0.508
x1 = 0.1962 | 803.24 | 795.27 | 787.16 | 778.85 | 770.31 | 2.269 | 1.657 | 1.14 | 0.88 | 0.545
x1 = 0.2944 | 803.09 | 795.15 | 787.07 | 778.79 | 770.27 | 2.413 | 1.744 | 1.21 | 0.93 | 0.588
x1 = 0.4058 | 802.91 | 795.01 | 786.96 | 778.71 | 770.2 | 2.594 | 1.855 | 1.297 | 0.991 | 0.641
x1 = 0.504 | 802.75 | 794.88 | 786.86 | 778.62 | 770.13 | 2.768 | 1.967 | 1.382 | 1.052 | 0.693
x1 = 0.6041 | 802.58 | 794.74 | 786.74 | 778.52 | 770.04 | 2.961 | 2.099 | 1.487 | 1.126 | 0.753
x1 = 0.7019 | 802.41 | 794.59 | 786.61 | 778.41 | 769.94 | 3.172 | 2.253 | 1.611 | 1.217 | 0.83
x1 = 0.8072 | 802.21 | 794.41 | 786.45 | 778.26 | 769.8 | 3.452 | 2.448 | 1.767 | 1.335 | 0.928
x1 = 0.8996 | – | 794.24 | 786.29 | 778.11 | 769.64 | – | 2.643 | 1.914 | 1.446 | 1.018

NCCCO [3-amino-1-propanol] + CCCO
Settings | mass density, 293.15 K [kg/m3] | mass density, 303.15 K [kg/m3] | mass density, 313.15 K [kg/m3] | mass density, 323.15 K [kg/m3] | mass density, 333.15 K [kg/m3] | viscosity, 293.15 K [mPa·s] | viscosity, 303.15 K [mPa·s] | viscosity, 313.15 K [mPa·s] | viscosity, 323.15 K [mPa·s] | viscosity, 333.15 K [mPa·s]
x1 = 0.1088 | 826.73 | 818.68 | 810.49 | 802.16 | 793.63 | 2.978 | 2.081 | 1.401 | 0.999 | 0.579
x1 = 0.2019 | 845.91 | 837.85 | 829.65 | 821.33 | 812.86 | 4.164 | 2.839 | 2.061 | 1.474 | –
x1 = 0.2993 | 865.53 | 857.43 | 849.23 | 840.93 | 832.49 | 5.873 | 3.89 | 2.864 | 2.11 | 1.266
x1 = 0.4099 | 886.82 | 878.7 | 870.51 | 862.22 | 853.84 | 8.435 | 5.443 | 3.97 | 2.95 | 1.828
x1 = 0.5002 | 903.78 | 895.67 | 887.49 | 879.21 | 870.85 | 11.26 | 7.04 | 5.05 | 3.657 | 2.352
x1 = 0.6014 | 922.34 | 914.25 | 906.08 | 897.8 | 889.48 | 15.35 | 9.477 | 6.59 | 4.685 | 3.105
x1 = 0.6995 | 939.59 | 931.51 | 923.4 | 915.21 | 907.01 | 20.08 | 12.29 | 8.276 | 5.816 | 3.907
x1 = 0.8091 | 958.11 | 950.09 | 942.03 | 933.93 | 925.77 | 26.44 | 15.93 | 10.5 | 7.232 | 4.917
x1 = 0.9003 | 972.64 | 964.64 | 956.59 | 948.49 | 940.36 | 32.71 | 19.52 | 12.63 | 8.57 | 5.829

CC(C)CO [2-methyl-1-propanol] + CC(C)O
Settings | mass density, 293.15 K [kg/m3] | mass density, 303.15 K [kg/m3] | mass density, 313.15 K [kg/m3] | mass density, 323.15 K [kg/m3] | mass density, 333.15 K [kg/m3] | viscosity, 293.15 K [mPa·s] | viscosity, 303.15 K [mPa·s] | viscosity, 313.15 K [mPa·s] | viscosity, 323.15 K [mPa·s] | viscosity, 333.15 K [mPa·s]
x1 = 0.1495 | 788.29 | 779.93 | 771.29 | 762.29 | 752.87 | 2.45 | 1.817 | 1.259 | 0.983 | 0.648
x1 = 0.2001 | 789.25 | 780.93 | 772.34 | 763.4 | 754.05 | 2.498 | 1.839 | 1.28 | 0.999 | 0.663
x1 = 0.3 | 791.09 | 782.85 | 774.35 | 765.53 | 756.31 | 2.621 | 1.907 | 1.331 | 1.035 | 0.696
x1 = 0.4249 | 793.26 | 785.12 | 776.74 | 768.04 | 758.97 | 2.81 | 2.021 | 1.418 | 1.095 | 0.745
x1 = 0.5189 | 794.8 | 786.73 | 778.43 | 769.83 | 760.87 | 2.976 | 2.131 | 1.505 | 1.158 | 0.794
x1 = 0.6202 | 796.38 | 788.38 | 780.17 | 771.67 | 762.82 | 3.184 | 2.271 | 1.617 | 1.237 | 0.857
x1 = 0.7166 | 797.83 | 789.9 | 781.76 | 773.35 | 764.6 | 3.395 | 2.417 | 1.732 | 1.32 | 0.921
x1 = 0.8005 | 799.06 | 791.18 | 783.1 | 774.76 | 766.09 | 3.594 | 2.547 | 1.837 | 1.394 | 0.979
x1 = 0.9001 | 800.47 | 792.65 | 784.64 | 776.38 | 767.81 | 3.838 | 2.709 | 1.963 | 1.483 | 1.051
